Assay results reported in patent US12565475B2, “Small molecule compound inhibiting signal transmission path of TLR7 and TLR9 and use thereof” (AJOU UNIVERSITY INDUSTRY-ACADEMIC COOPERATION FOUNDATION, priority 2019, dated 2026).

Experiments:
RAW 264.7 cells [1] = assay: MTT cell viability / cytotoxicity assay; assay type: cell-based, murine; settings: 50 μM, 24 hours
Protocol: RAW 264.7 cells were seeded onto 96-well cell culture plate at a density of 2×10^4 cells/well and allowed to stabilize overnight. The cells were treated with test compounds or a negative control (DMSO; dimethyl sulfoxide) for 24 hours, where the final DMSO concentration of the treated well was 0.25%. Then, the medium was removed, and 500 μg/ml of an MTT (3-(4,5-dimethylthiazol-2-yl)-2,5-diphenyltetrazolium bromide, InvivoGen Ltd.) solution was added to each well. After 3 hours, the solution was replaced with DMSO (Biosesang Co. Ltd., Korea), and incubated for an additional 30 minutes to complete formazan dissolution. Absorbance was measured by a microplate colorimetric reader at a wavelength of 595 nm and normalized to the control for the determination of the cell viability. All incubations were performed under the same conditions as described above.
Before testing the antagonistic properties of the selected compounds, an MTT (3-(4,5-dimethylthiazol-2-yl)-2,5-diphenyltetrazolium bromide) assay was performed, whereby the cytotoxicity of the compounds in a murine macrophage cell line (RAW 264.7) was monitored. […] The other ligands were excluded as test subjects due to the high cytotoxicity thereof.

TLR9 [2] = molecular target: T1, TLR9 (Mus musculus, UniProt Q9EQU3); assay: TLR9-mediated TNF-α secretion (ODN2395 stimulation), ELISA; assay type: cell-based, murine; settings: for inhibitory efficacy on TLR9-mediated TNF-α secretion: RAW 264.7, 10 or 50 μM, ODN2395 (FIG. 4A)
T1 construct: endogenous in cells; host or cells: RAW 264.7
T1 sequence (Q9EQU3 26-1032): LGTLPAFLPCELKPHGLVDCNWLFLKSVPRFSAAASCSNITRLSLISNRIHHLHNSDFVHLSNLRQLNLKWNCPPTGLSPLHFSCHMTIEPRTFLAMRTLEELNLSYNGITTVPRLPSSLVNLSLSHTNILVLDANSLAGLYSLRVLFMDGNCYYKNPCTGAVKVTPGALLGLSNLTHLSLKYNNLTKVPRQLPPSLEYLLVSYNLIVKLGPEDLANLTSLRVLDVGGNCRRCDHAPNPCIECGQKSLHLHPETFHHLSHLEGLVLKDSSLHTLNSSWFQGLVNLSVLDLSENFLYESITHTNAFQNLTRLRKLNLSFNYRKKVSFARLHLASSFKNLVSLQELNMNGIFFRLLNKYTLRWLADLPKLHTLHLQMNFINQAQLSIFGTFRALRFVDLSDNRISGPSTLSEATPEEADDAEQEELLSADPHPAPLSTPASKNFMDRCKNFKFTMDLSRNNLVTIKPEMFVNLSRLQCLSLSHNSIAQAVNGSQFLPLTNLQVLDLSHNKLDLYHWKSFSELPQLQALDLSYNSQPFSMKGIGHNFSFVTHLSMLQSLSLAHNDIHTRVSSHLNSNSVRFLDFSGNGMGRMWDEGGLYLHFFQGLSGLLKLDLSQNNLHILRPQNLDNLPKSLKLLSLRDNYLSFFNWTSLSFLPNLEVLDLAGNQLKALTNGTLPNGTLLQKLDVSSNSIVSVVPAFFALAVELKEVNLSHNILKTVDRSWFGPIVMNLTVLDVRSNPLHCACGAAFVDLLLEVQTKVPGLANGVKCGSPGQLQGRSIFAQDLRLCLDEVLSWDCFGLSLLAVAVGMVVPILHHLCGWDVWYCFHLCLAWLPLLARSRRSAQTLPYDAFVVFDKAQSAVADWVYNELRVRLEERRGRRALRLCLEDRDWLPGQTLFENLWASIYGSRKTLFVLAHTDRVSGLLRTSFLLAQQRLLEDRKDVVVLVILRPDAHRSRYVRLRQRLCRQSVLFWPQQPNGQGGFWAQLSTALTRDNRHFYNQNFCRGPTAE
Protocol: (§1) Agonists specific to TLR1/TLR2 (Pam3CSK4), TLR2/TLR6 (FSL-1), TLR3 (Poly I:C), TLR7 (imiquimod), and TLR8 (TL8-506) were purchased from InvivoGen Ltd. (Hong-Kong, China), and a TLR4-specific agonist (LPS from E. coli O111:B4) was purchased from Sigma-Aldrich, Inc. For TLR9-specific stimulation, class C CpG-ODN (ODN2395, 5′-TCGTCGTTTTCGGCGCGCGCCG-3′) having full phosphorothioate backbone modification was synthesized (Bioneer, Inc., Daejeon, Korea). All TLR agonists were dissolved in deionized water and applied to a culture media for TLR activation. The cells were treated with test compounds or a control medium for 1 hour, and then stimulated with a TLR agonist for 4 hours, or 24 hours in the case of poly(I:C), and the cytokine secretion was monitored.
(§2) RAW 264.7 or differentiated THP-1 cell lines were seeded onto a 96-well culture plate at a density of 2×10^4 cells/well. The cells were treated with test compounds for 1 hour followed by the stimulation with TLR agonists for 4 hours. The supernatant was transferred to pre-coated assay plates, and the secretion levels of mouse and human TNF-α were measured by respective ELISA kits (Invitrogen, Carlsbad, CA, USA). All experiments were performed according to the manufacturer's instructions. Absorbance was measured by a microplate reader spectrophotometer (Molecular Devices, Inc., San Jose, CA, USA), and data was interpolated from a standard curve using SoftMax Pro 5.3 software (Molecular Devices, Inc.).
(§3) In order to evaluate the antagonistic effect of each compound on TLR7/TLR9 through ELISA (enzyme-linked immunosorbent assay), RAW 264.7 cells were pretreated with the eight compounds followed by the stimulation with a TLR7-specific agonist (imiquimod, 3.61 μM) or with a TLR9-specific agonist (ODN2395, 0.5 μM). […] Since the two ligands had no agonistic effect per se (FIG. 3B), the increased cytokine production may be due to cell activation (or non-specific cellular stress) by co-treatment. Consequently, TIC10 was selected as the most suitable lead for further optimization to improve the inhibitory potency against both TLR7 and TLR9.

RAW 264.7 cells [3] = assay: Agonistic activity: TNF-α secretion after stimulation with compound alone (ELISA); assay type: cell-based, murine; settings: compound alone 24 hours
TLR7 = molecular target: T2, TLR7 (Mus musculus, UniProt P58681); assay: TLR7-mediated TNF-α secretion (imiquimod stimulation), ELISA; assay type: cell-based, murine; settings: for inhibitory efficacy on TLR7-mediated TNF-α secretion: RAW 264.7, 10 or 50 μM, imiquimod (FIG. 4B)
T2 construct: endogenous in cells; host or cells: RAW 264.7
T2 sequence (P58681 27-1050): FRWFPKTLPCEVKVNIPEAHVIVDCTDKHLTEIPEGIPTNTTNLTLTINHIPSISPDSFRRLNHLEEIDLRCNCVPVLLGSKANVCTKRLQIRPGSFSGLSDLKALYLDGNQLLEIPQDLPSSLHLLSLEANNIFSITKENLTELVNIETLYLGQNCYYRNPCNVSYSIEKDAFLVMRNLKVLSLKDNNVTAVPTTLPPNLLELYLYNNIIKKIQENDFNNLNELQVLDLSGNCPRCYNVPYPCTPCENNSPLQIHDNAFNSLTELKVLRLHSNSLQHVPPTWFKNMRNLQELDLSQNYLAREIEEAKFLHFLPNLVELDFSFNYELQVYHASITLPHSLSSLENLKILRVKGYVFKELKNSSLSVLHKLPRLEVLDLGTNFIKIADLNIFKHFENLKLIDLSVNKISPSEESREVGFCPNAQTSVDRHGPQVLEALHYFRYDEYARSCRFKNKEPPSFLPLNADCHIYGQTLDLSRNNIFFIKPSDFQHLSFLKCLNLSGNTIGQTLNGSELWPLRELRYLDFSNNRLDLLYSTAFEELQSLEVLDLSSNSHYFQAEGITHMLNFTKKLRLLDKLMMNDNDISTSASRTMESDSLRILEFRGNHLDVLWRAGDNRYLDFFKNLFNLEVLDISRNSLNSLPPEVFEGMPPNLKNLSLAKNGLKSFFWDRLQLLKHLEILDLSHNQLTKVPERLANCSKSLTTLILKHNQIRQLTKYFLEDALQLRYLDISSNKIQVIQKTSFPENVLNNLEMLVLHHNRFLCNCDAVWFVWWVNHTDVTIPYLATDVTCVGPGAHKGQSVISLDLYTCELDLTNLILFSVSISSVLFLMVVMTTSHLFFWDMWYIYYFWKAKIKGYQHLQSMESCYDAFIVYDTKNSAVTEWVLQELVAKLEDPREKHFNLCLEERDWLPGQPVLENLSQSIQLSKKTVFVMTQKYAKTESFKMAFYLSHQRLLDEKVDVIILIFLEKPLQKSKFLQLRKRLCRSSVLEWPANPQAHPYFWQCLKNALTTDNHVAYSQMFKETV
Protocol: as §1, §2, §3

TLR9 [4] = molecular target: T3, TLR9 (Homo sapiens, UniProt Q9NR96); settings: Target TLR9; values from cited literature/patent; cited from earlier work
T3 sequence (Q9NR96 26-1032): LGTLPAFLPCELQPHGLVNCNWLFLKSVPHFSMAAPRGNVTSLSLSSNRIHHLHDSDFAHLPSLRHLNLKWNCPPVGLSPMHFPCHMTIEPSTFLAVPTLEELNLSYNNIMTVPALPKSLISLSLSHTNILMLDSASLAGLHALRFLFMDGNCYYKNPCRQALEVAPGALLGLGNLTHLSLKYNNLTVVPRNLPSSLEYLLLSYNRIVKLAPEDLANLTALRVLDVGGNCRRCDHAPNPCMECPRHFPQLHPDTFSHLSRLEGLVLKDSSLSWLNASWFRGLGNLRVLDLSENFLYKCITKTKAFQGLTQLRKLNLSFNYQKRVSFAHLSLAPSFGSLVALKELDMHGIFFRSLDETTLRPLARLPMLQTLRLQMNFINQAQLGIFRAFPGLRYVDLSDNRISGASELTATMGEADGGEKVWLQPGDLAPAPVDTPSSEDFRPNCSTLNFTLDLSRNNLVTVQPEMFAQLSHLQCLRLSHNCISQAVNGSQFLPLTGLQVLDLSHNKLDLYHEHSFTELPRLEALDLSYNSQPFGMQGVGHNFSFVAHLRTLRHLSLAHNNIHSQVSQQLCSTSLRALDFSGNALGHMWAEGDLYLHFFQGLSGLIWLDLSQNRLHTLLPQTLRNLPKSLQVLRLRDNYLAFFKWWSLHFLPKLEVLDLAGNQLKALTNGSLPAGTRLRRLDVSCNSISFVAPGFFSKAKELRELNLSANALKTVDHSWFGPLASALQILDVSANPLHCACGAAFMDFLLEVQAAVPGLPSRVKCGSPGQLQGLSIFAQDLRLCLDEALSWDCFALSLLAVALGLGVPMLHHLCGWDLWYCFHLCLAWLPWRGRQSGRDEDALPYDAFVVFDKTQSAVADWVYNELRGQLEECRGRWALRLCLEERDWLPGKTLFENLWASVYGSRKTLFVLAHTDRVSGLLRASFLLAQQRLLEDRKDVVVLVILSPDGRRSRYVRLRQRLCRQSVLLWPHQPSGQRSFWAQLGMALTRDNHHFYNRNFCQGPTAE

Compound | inhibitory efficacy on TLR9-mediated TNF-α secretion (TLR9 [2]) | inhibitory efficacy on TLR7-mediated TNF-α secretion (TLR7) | IC50 (TLR9 [4]) | other results
COc1ccc(-c2cnc(NCc3cccc(OC)c3O)n2C)cc1 [TIC10, 2-methoxy-6-({[5-(4-methoxyphenyl)-1-methyl-1H-imidazol-2-yl]amino}methyl)phenol] | – | – | – | cytotoxicity (MTT assay) (RAW 264.7 cells [1]): non-toxic or marginally toxic; inhibition of TLR9-mediated TNF-α secretion (TLR9 [2]; RAW 264.7, 50 μM, pretreated 1 hour, ODN2395 0.5 μM 4 hours): significantly inhibit; expression of proinflammatory cytokine TNF-α on stimulation with ligand alone (agonistic role) (RAW 264.7 cells [3]): did not induce the expression of proinflammatory cytokine TNF-α; inhibition of TLR7-mediated TNF-α secretion (TLR7; RAW 264.7, at 50 µM, pretreated 1 hour, imiquimod 3.61 μM 4 hours): inhibited
CCOc1ccc(-c2cnc(NCc3cccc(OC)c3OC)n2C)cc1 [TIC10-8] | improved inhibitory efficacy compared to TIC10 | improved inhibitory efficacy compared to TIC10 | – | –
CN(C)CCNc1nc(-c2ccc(N3CCN(C)CC3)cc2)nc2ccccc12 [CHEMBL515364] | – | – | 0.03 µM | –
CCOc1ccc(-c2cnc(NCc3ccc(OC)c(OC)c3OC)n2C)cc1 [TIC10-3] | improved inhibitory efficacy compared to TIC10 | improved inhibitory efficacy compared to TIC10 | – | –
COc1cc2nc(-c3ccc(N4CCN(C)CC4)cc3)nc(NCCN3CCOCC3)c2cc1OC [CPG-52364] | – | – | 0.0046 µM | –
CN1CCN(c2ccc(-c3nc(NCCN4CCOCC4)c4ccccc4n3)cc2)CC1 [CHEMBL457704] | – | – | 0.02 µM | –
